Results from article PMC10746103, “Development of a HPLC-MS/MS Method to Assess the Pharmacokinetics and Tumour Distribution of the Dimethylarginine Dimethylaminohydrolase 1 Inhibitors ZST316 and L-257 in a Xenograft Model of Triple-Negative Breast Cancer in Mice” (Molecules, 2023).
“And” between values parts separate entries of the source, which are not always exact repeats. Equal values may be shown once. “Also recorded” adds a separate entry of the source.

Key:
DDAH1 = details: cited from earlier work
[1] = Tumour distribution of ZST316 and L-257 after intraperitoneal ZST316 in MDA-MB-231 TNBC xenograft (HPLC-MS/MS); format: in vivo, SCID mice; details: for time intra-tumour concentration remained above the IC50 and Ki values for DDAH1 inhibition: estimated
Experimental: (§1) Six-week-old female severe combined immunodeficiency disease (SCID) mice (n = 24; Charles River Laboratories Italia S.r.L., Calco, Lecco, Italy), were housed under rigorous standards and handled under pathogen-free conditions in the Animal Care Facilities of the Mario Negri Institute for Pharmacological Research (Milan, Italy).
(§2) Two ×10^6 (in 10 μL) MDA-MB-231 TNBC cells were transplanted into the mammary fat pad. Tumour growth was regularly monitored with a calliper and treatment with ZST316 was given when the tumour volume reached 400–500 mm^3. Mice received either a single dose (acute treatment) or a daily dose of ZST316 30 mg/Kg intraperitoneally for five days (chronic treatment).
(§3) Plasma and tumour tissue (n = 3 mice/each time point) were sampled at 1, 8 and 24 h after treatment (on day 5 for the chronic treatment). To collect plasma, mice were anesthetized by isoflurane, the blood was drained from the retro-orbital plexus into heparinised tubes and centrifuged for 10 min at 4000× g at 4 °C. Tumours were collected and immediately frozen. Plasma and tumour samples were stored at −20 °C until analysis.
Control MDA-MB-231 TNBC cell tumours were homogenized with NH4COOH 50 mM (1:4, w:v). The homogenate (90 μL) was spiked with 5 μL of ZST316 and L-257 working solutions prepared in the range of 100–10,000 ng/mL generating seven tumour calibration standards in the range 25–5000 ng/g. The calibration curve included also a blank and a zero blank standard plasma sample (processed with IS). To prepare QC samples, 90 μL of the homogenate was mixed with an appropriate amount of QC working solutions to obtain QC plasma samples at the nominal concentration of 75, 375, and 1250 ng/g.
The procedure was similar to that described for plasma in Section 3.3.2.
(§4) Reversed-phase chromatography was performed under gradient conditions with separation on a HILIC column, C18, 3 μm, 100 A, 2.1 × 150 mm, Waters (Milford, MA, USA), coupled with a 3 μm, 3.9 × 5.0 mm guard column of the same material at the flow rate of 0.2 mL/min. Gradient features were: 10% mobile phase (MP) A (NH4HCO2 10 mM, 10% CH3CN, 0.1% HCOOH) and 90% MP B (CH3CN, 0.1% HCOOH) as initial constant condition; then to 90% MP A in 6 min and constant condition for 1.5 min. Return to start condition in 0.5 min and conditioning for 5.5 min. Total run time: 13.5 min. Analyte detection and quantification were performed using tandem mass spectrometry (MS/MS) operating in positive ionization mode as previously reported for ZST316 and ZST152 [31].

[2] = Plasma pharmacokinetics of ZST316 and L-257 after intraperitoneal ZST316 in MDA-MB-231 xenograft mice (HPLC-MS/MS); format: in vivo, SCID mice
Experimental: as §1, §2, §3
To assay ZST316 and L-257, 10 μL of IS (ZST152 WS: 500 ng/mL) were added to 100 μL of study plasma samples, standards, and QCs in a polypropylene tube. The samples were then added with 10 μL of NH4COOH 50 mM, mixed and added with 400 μL CH3OH:0.1% HCOOH, vortex mixed again and centrifuged at 13,200 rpm for 10 min at 4 °C. The supernatant was transferred to a 1.5 mL Eppendorf tube, dried under nitrogen flow and reconstituted with 100 μL of mobile phase (MP) A:B (1:1, v/v). Finally, the samples were centrifuged at 13,200 rpm for 10 min at 4 °C and the supernatant transferred into vials for HPLC-MS/MS analysis.
as §4

[3] = Stability of ZST316 and L-257 in frozen plasma; format: in vitro ADME, mice; details: for Mean found value, Stability −20 °C / Accuracy (%), Stability −20 °C: plasma QC, one month at −20 °C; for Mean found value, Stability −20 °C: n=3; for Accuracy (%), Stability −20 °C: percent of nominal
Experimental: The stability of ZST316 and L-257 in plasma was assessed by analysing QC samples containing both compounds after prolonged storage in the same conditions of the study samples.
Stability was determined by analysing 3 QCs per concentration level immediately after the preparation, and 3 QCs per concentration level after one month of storage at −20 °C. The analytes were considered stable at each QC concentration when the freshly prepared samples and the stability test samples differed by no more than 15% from the nominal concentrations.

[4] = acute (single dose) ZST316 30 mg/Kg i.p., 1 h
[5] = acute ZST316 30 mg/Kg i.p., 1 h
[6] = acute ZST316 30 mg/Kg i.p., 8 h
[7] = acute ZST316 30 mg/Kg i.p., 8 h, n=3
[8] = acute ZST316 30 mg/Kg i.p., 24 h
[9] = acute ZST316 30 mg/Kg i.p., approximately estimated due to limited time points
[10] = chronic (five-day) ZST316 30 mg/Kg i.p. daily, 1 h
[11] = chronic (five-day) ZST316 30 mg/Kg i.p. daily, 24 h
[12] = chronic ZST316 30 mg/Kg i.p. daily
[13] = chronic ZST316 30 mg/Kg i.p. daily, day 5, 1 h
[14] = chronic ZST316 30 mg/Kg i.p. daily, day 5, 8 h
[15] = chronic ZST316 30 mg/Kg i.p. daily, day 5, 8 h, n=3
[16] = chronic ZST316 30 mg/Kg i.p. daily, day 5, 24 h
[17] = chronic ZST316 30 mg/Kg i.p. daily, approximately estimated due to limited time points
[18] = range over acute and chronic treatment

## COCCNC(N)=NCCC[C@H](N)C(=O)O [L-257]
DDAH1; dotted line in figures
  Ki: 7 µM
DDAH1; equivalent of 7 μM
  Ki expressed as concentration: 1.625 µg/mL
[1]; [4]
  mean intra-tumour concentration: 3.5 µg/g
[1]; acute (single dose) ZST316 30 mg/Kg i.p., 24 h
  mean intra-tumour concentration: 0.04 µg/g
[1]; acute ZST316 30 mg/Kg i.p.
  Cmax tumour: 3.50 μg/g and 15.08 μM
  tumour AUC: 23.9 µg·h/g
[1]; [5]
  tumour concentration, individual mice: 3590 ng/g and 2810 ng/g and 4090 ng/g and 15.5 µM and 12.1 µM and 17.6 µM
[1]; [6]
  tumour concentration, individual mice: 225 ng/g and 1060 ng/g and 2.8 µM and 0.97 µM and 4.57 µM and 651 ng/g
[1]; [7]
  mean tumour concentration: 645 ng/g and 2.78 μM
[1]; [8]
  tumour concentration, individual mice: 30.7 ng/g and 33.1 ng/g and 56.1 ng/g and 0.13 µM and 0.14 µM and 0.24 µM
[1]; [9]
  half-life tumour: 3.6 h
[1]; after acute ZST316 treatment
  time intra-tumour concentration remained above the IC50 and Ki values for DDAH1 inhibition: 4 h
[1]; after chronic ZST316 treatment
  time intra-tumour concentration remained above the IC50 and Ki values for DDAH1 inhibition: 3.5 h
[1]; [10]
  mean intra-tumour concentration: 3.24 µg/g
[1]; [11]
  mean intra-tumour concentration: 0.10 µg/g
[1]; [12]
  Cmax tumour: 3.24 μg/g and 13.96 μM
  tumour AUC: 20.3 µg·h/g
[1]; [13]
  tumour concentration, individual mice: 3550 ng/g and 2810 ng/g and 3350 ng/g and 15.29 µM and 12.10 µM and 14.43 µM
[1]; [14]
  tumour concentration, individual mice: 413 ng/g and 403 ng/g and 326 ng/g and 1.78 µM and 1.74 µM and 1.40 µM
[1]; [15]
  mean tumour concentration: 381 ng/g and 1.64 μM
[1]; [16]
  mean tumour concentration: 97 ng/g
  tumour concentration, individual mice: 35.5 ng/g and 159 ng/g and < LOQ and 0.15 µM and 0.68 µM and 0.05 µM
[1]; chronic ZST316 30 mg/Kg i.p. daily, day 5, 24 h, n=3
  mean tumour concentration: 0.30 µM
[1]; [17]
  half-life tumour: 4.9 h
[1]; [18]
  half-life tumour: 3.6 to 4.9 h
[1]; representative chromatogram, sample taken at 24 h after acute treatment (b8)
  measured concentration in unknown study tumour sample (Figure 3): 30.7 ng/g
[2]; ZST316 30 mg/Kg i.p. daily for five days, day 5 vs day 1
  accumulation in plasma and tumour during chronic treatment: without accumulation; also recorded: no accumulation
[2]; [4]
  mean plasma concentration: 2.02 µg/mL
[2]; acute ZST316 30 mg/Kg i.p.
  Cmax: 8.7 µM
  Cmax plasma: 2020 ng/mL
  Plasma AUC1–24 h: 0.061
[2]; acute ZST316 30 mg/Kg i.p. (day 1)
  Plasma AUC1–24 h: 14.1 µg·h/mL
[2]; [5]
  plasma concentration, individual mice: 2610 ng/mL and 1700 ng/mL and 1760 ng/mL and 11.24 µM and 7.32 µM and 7.58 µM
[2]; [6]
  plasma concentration, individual mice: 272 ng/mL and 382 ng/mL and 2.16 µM and 1.17 µM and 1.65 µM and 502 ng/mL
[2]; [7]
  mean plasma concentration: 385 ng/mL and 1.66 μM
[2]; [8]
  plasma concentration, individual mice: 38 ng/mL and 32.5 ng/mL and 47.8 ng/mL and 0.16 µM and 0.14 µM and 0.21 µM
[2]; [9]
  half-life plasma: 4.2 h
[2]; [10]
  mean plasma concentration: 1.60 µg/mL
[2]; [11]
  mean plasma concentration: 0.06 µg/mL
[2]; [12]
  Cmax: 6.89 µM
  Cmax plasma: 1600 ng/mL
  Plasma AUC1–24 h: 0.044
[2]; chronic ZST316 30 mg/Kg i.p. daily (day 5)
  Plasma AUC1–24 h: 10.3 µg·h/mL
[2]; [13]
  plasma concentration, individual mice: 1600 ng/mL and 1500 ng/mL and 1710 ng/mL and 6.89 µM and 6.46 µM and 7.37 µM
[2]; [14]
  plasma concentration, individual mice: 249 ng/mL and 136 ng/mL and 0.90 µM and 1.07 µM and 0.59 µM and 209 ng/mL
[2]; [15]
  mean plasma concentration: 198 ng/mL and 0.85 μM
[2]; [16]
  plasma concentration, individual mice: 58.8 ng/mL and 95.2 ng/mL and 29.1 ng/mL and 0.25 µM and 0.41 µM and 0.13 µM
[2]; [17]
  half-life plasma: 5.3 h
[2]; [18]
  half-life plasma: 4.2 to 5.3 h
[2]; representative chromatogram, sample taken at 1 h after acute treatment (b8)
  measured concentration in unknown study plasma sample (Figure 2): 1710 ng/mL
[3]; at least one month at −20 °C
  stability in frozen plasma: stable
[3]; actual value 15.00 ng/mL
  Mean found value, Stability −20 °C: 15.8 ng/mL
  Accuracy (%), Stability −20 °C: 105.6%
[3]; actual value 75.00 ng/mL
  Mean found value, Stability −20 °C: 75.7 ng/mL
  Accuracy (%), Stability −20 °C: 101.0%
[3]; actual value 250.00 ng/mL
  Mean found value, Stability −20 °C: 259.5 ng/mL
  Accuracy (%), Stability −20 °C: 103.8%
